Measured values reported in paper PMC5086383, “Isolation and Physicochemical Characterization of Laccase from Ganoderma lucidum-CDBT1 Isolated from Its Native Habitat in Nepal” (BioMed Research International, 2016).

Test system: T1, laccase isozyme 3 (purified laccase from Ganoderma lucidum-CDBT1)
T1 construct: native secreted enzyme purified from culture medium (ammonium sulfate, DEAE Sepharose); 43 kDa by SDS-PAGE
Test: ABTS oxidation at […] nm, Lineweaver-Burk
Format: biochemical
Conditions: 0.1 M sodium acetate pH 5.0, room temperature (~25°C); ABTS 0.01 to 10 mM; co-substrate O2

CCn1c(=NN=c2sc3cc(S(=O)(=O)O)ccc3n2CC)sc2cc(S(=O)(=O)O)ccc21 [ABTS, 2,2′-azino-bis(3-ethylbenzothiazoline-6-sulfonic acid)]
Km: 110 µM
